Results as given in ChEMBL document CHEMBL3813672, “Discovery of anti-cancer activity for benzo[1,2,4]triazin-7-ones: Very strong correlation to pleurotin and thioredoxin reductase inhibition” (Bioorg Med Chem, 2016).

What was measured:
MDA-MB-435 [1] = experiment: Growth inhibition of human MDA-MB-435 cells incubated for 48 hrs by sulforhodamine B assay; assay type: functional; details: MDA-MB-435, 48 h
[2] = Growth inhibition of human RXF393 cells assessed as cell growth at 10 uM incubated for 48 hrs by sulforhodamine B assay relative to control; assay type: functional; details: RXF 393, 48 h, read-out: Activity
MCF7 [3] = experiment: Cytotoxicity against human MCF7 cells assessed as reduction in cell viability after 72 hrs by MTT assay; assay type: functional, cell-based; details: MCF7, 72 h
[4] = Growth inhibition of human Caki1 cells assessed as cell growth at 10 uM incubated for 48 hrs by sulforhodamine B assay relative to control; assay type: functional; details: CAKI-1, 48 h, read-out: Activity
HT-29 [5] = experiment: Growth inhibition of human HT-29 cells assessed as cell growth at 10 uM incubated for 48 hrs by sulforhodamine B assay relative to control; assay type: functional; details: HT-29, 48 h, read-out: Activity
MDA-MB-435 [6] = experiment: Growth inhibition of human MDA-MB-435 cells assessed as cell growth at 10 uM incubated for 48 hrs by sulforhodamine B assay relative to control; assay type: functional; details: MDA-MB-435, 48 h, read-out: Activity
U-251 = experiment: Growth inhibition of human U251 cells assessed as cell growth at 10 uM incubated for 48 hrs by sulforhodamine B assay relative to control; assay type: functional; details: U-251, 48 h, read-out: Activity
[7] = Growth inhibition of human RPMI8226 cells assessed as cell growth at 10 uM incubated for 48 hrs by sulforhodamine B assay relative to control; assay type: functional; details: RPMI-8226, 48 h, read-out: Activity
MCF7 [8] = experiment: Growth inhibition of human MCF7 cells assessed as cell growth at 10 uM incubated for 48 hrs by sulforhodamine B assay relative to control; assay type: functional; details: MCF7, 48 h, read-out: Activity
[9] = Growth inhibition of human HL-60(TB) cells assessed as cell growth at 10 uM incubated for 48 hrs by sulforhodamine B assay relative to control; assay type: functional; details: HL-60, 48 h, read-out: Activity
M14 [10] = experiment: Growth inhibition of human M14 cells incubated for 48 hrs by sulforhodamine B assay; assay type: functional; details: M14, 48 h
[11] = Growth inhibition of human SNB75 cells assessed as cell growth at 10 uM incubated for 48 hrs by sulforhodamine B assay relative to control; assay type: functional; details: SNB-75, 48 h, read-out: Activity
K562 = experiment: Growth inhibition of human K562 cells assessed as cell growth at 10 uM incubated for 48 hrs by sulforhodamine B assay relative to control; assay type: functional; details: K562, 48 h, read-out: Activity
[12] = Growth inhibition of human LOXIMVI cells assessed as cell growth at 10 uM incubated for 48 hrs by sulforhodamine B assay relative to control; assay type: functional; details: LOX IMVI, read-out: Activity
[13] = Growth inhibition of human UO31 cells assessed as cell growth at 10 uM incubated for 48 hrs by sulforhodamine B assay relative to control; assay type: functional; details: UO-31, 48 h, read-out: Activity
NCI-H522 = experiment: Growth inhibition of human NCI-H522 cells assessed as cell growth at 10 uM incubated for 48 hrs by sulforhodamine B assay relative to control; assay type: functional; details: NCI-H522, 48 h, read-out: Activity
[14] = Growth inhibition of human HCC2998 cells assessed as cell growth at 10 uM incubated for 48 hrs by sulforhodamine B assay relative to control; assay type: functional; details: HCC 2998, 48 h, read-out: Activity
NCI-H322M = experiment: Growth inhibition of human NCI-H322M cells assessed as cell growth at 10 uM incubated for 48 hrs by sulforhodamine B assay relative to control; assay type: functional; details: read-out: Activity
[15] = Growth inhibition of human UACC62 cells assessed as cell growth at 10 uM incubated for 48 hrs by sulforhodamine B assay relative to control; assay type: functional; details: UACC-62, 48 h, read-out: Activity
SN12C = experiment: Growth inhibition of human SN12C cells assessed as cell growth at 10 uM incubated for 48 hrs by sulforhodamine B assay relative to control; assay type: functional; details: read-out: Activity
[16] = Cytotoxicity against human GM00637 cells assessed as reduction in cell viability after 72 hrs by MTT assay; assay type: cell-based; details: GM00637, 72 h
786-0 = experiment: Growth inhibition of human 786-0 cells assessed as cell growth at 10 uM incubated for 48 hrs by sulforhodamine B assay relative to control; assay type: functional; details: 786-0, 48 h, read-out: Activity
NCI-H226 = experiment: Growth inhibition of human NCI-H226 cells assessed as cell growth at 10 uM incubated for 48 hrs by sulforhodamine B assay relative to control; assay type: functional; details: NCI-H226, 48 h, read-out: Activity
HT-29 [17] = experiment: Growth inhibition of human HT-29 cells incubated for 48 hrs by sulforhodamine B assay; assay type: functional; details: HT-29, 48 h
[18] = Growth inhibition of human SF268 cells assessed as cell growth at 10 uM incubated for 48 hrs by sulforhodamine B assay relative to control; assay type: functional; details: SF-268, 48 h, read-out: Activity
[19] = Growth inhibition of human DU145 cells assessed as cell growth at 10 uM incubated for 48 hrs by sulforhodamine B assay relative to control; assay type: functional; details: DU-145, 48 h, read-out: Activity
SK-MEL-5 = experiment: Growth inhibition of human SK-MEL-5 cells assessed as cell growth at 10 uM incubated for 48 hrs by sulforhodamine B assay relative to control; assay type: functional; details: SK-MEL-5, 48 h, read-out: Activity
[20] = Growth inhibition of human DU145 cells incubated for 48 hrs by sulforhodamine B assay; assay type: functional; details: DU-145, 48 h
[21] = Growth inhibition of human PC3 cells assessed as cell growth at 10 uM incubated for 48 hrs by sulforhodamine B assay relative to control; assay type: functional; details: PC-3, 48 h, read-out: Activity
[22] = Cytotoxicity against human DU145 cells assessed as reduction in cell viability after 72 hrs by MTT assay; assay type: functional, cell-based; details: DU-145, 72 h
[23] = Growth inhibition of human Hs 578T cells assessed as cell growth at 10 uM incubated for 48 hrs by sulforhodamine B assay relative to control; assay type: functional; details: read-out: Activity
NCI-H460 = experiment: Growth inhibition of human NCI-H460 cells assessed as cell growth at 10 uM incubated for 48 hrs by sulforhodamine B assay relative to control; assay type: functional; details: NCI-H460, 48 h, read-out: Activity
[24] = Selectivity ratio of IC50 for human GM00637 cells to IC50 for human DU145 cells; assay type: ADME, cell-based; details: GM00637 cells versus DU145 cells, read-out: Ratio IC50
[25] = Growth inhibition of human SNB19 cells assessed as cell growth at 10 uM incubated for 48 hrs by sulforhodamine B assay relative to control; assay type: functional; details: SNB-19, 48 h, read-out: Activity
M14 [26] = experiment: Growth inhibition of human M14 cells assessed as cell growth at 10 uM incubated for 48 hrs by sulforhodamine B assay relative to control; assay type: functional; details: M14, 48 h, read-out: Activity
[27] = read-out: pLC50 (the source's name) (converted)

O=c1ccc2nc(C(F)(F)F)nn(-c3ccccc3)c-2c1
GI50 (MDA-MB-435 [1]): 4.57 µM | CC50 (MDA-MB-435 [1]; [27]): 40.7 µM | TGI (MDA-MB-435 [1]; read-out: pTGI (converted)): 16.6 µM | growth at 10 µM [2]: -20.4% | IC50 (MCF7 [3]): 0.6 µM | growth at 10 µM [4]: 56% | growth at 10 µM (HT-29 [5]): -64.3% | growth at 10 µM (MDA-MB-435 [6]): 62.3% | growth at 10 µM (U-251): 69.7% | growth at 10 µM [7]: 45.6% | growth at 10 µM (MCF7 [8]): -49.3% | growth at 10 µM [9]: -36.6% | GI50 (M14 [10]): 5.75 µM | CC50 (M14 [10]; [27]): 45.7 µM | TGI (M14 [10]; read-out: pTGI (converted)): 19.1 µM | growth at 10 µM [11]: 86.5% | growth at 10 µM (K562): -35.1% | growth at 10 µM [12]: 4.3% | growth at 10 µM [13]: 24% | growth at 10 µM (NCI-H522): -56% | growth at 10 µM [14]: 102% | growth at 10 µM (NCI-H322M): 99.8% | growth at 10 µM [15]: 66.4% | growth at 10 µM (SN12C): 67.9% | IC50 [16]: 1.61 µM | growth at 10 µM (786-0): 22.2% | growth at 10 µM (NCI-H226): 77.7% | GI50 (HT-29 [17]): 2.63 µM | CC50 (HT-29 [17]; [27]): > 100 µM | growth at 10 µM [18]: 77.4% | growth at 10 µM [19]: 40.5% | growth at 10 µM (SK-MEL-5): 32.7% | GI50 [20]: 1.78 µM | CC50 [20, 27]: 5.62 µM | TGI ([20]; read-out: pTGI (converted)): 3.16 µM | growth at 10 µM [21]: 84.5% | IC50 [22]: 0.85 µM | growth at 10 µM [23]: 74% | growth at 10 µM (NCI-H460): 97.3% | selectivity ratio [24]: 2 | growth at 10 µM [25]: 93.5% | growth at 10 µM (M14 [26]): 62.1%

O=c1ccc2nc(-c3ccccc3)nn(-c3ccccc3)c-2c1
growth at 10 µM [2]: -92.8% | IC50 (MCF7 [3]): 0.81 µM | growth at 10 µM [4]: -90.9% | growth at 10 µM (HT-29 [5]): -53.5% | growth at 10 µM (MDA-MB-435 [6]): 24.6% | growth at 10 µM (U-251): 66.2% | growth at 10 µM [7]: -6.53% | growth at 10 µM (MCF7 [8]): -66.7% | growth at 10 µM [9]: -45.5% | growth at 10 µM [11]: 93.2% | growth at 10 µM (K562): -39% | growth at 10 µM [12]: -51.6% | growth at 10 µM [13]: -97.5% | growth at 10 µM (NCI-H522): -90.5% | growth at 10 µM [14]: 100% | growth at 10 µM (NCI-H322M): 66.2% | growth at 10 µM [15]: 30.1% | growth at 10 µM (SN12C): 40.2% | IC50 [16]: 0.23 µM | growth at 10 µM (786-0): 48.6% | growth at 10 µM (NCI-H226): 66.1% | growth at 10 µM [18]: 70.5% | growth at 10 µM [19]: -95.5% | growth at 10 µM (SK-MEL-5): 19.5% | growth at 10 µM [21]: 43.5% | IC50 [22]: 0.23 µM | growth at 10 µM [23]: 75.9% | growth at 10 µM (NCI-H460): 61.5% | growth at 10 µM [25]: 76% | growth at 10 µM (M14 [26]): 51.2%
